How the values were obtained:
[1] = tested on: advanced gastric cancer PDX tissue; assay: Construction of HER2 inhibitor-resistant PDX model by prolonged administration; type: in vivo, mice
Description: (§1) A large-scale patient-derived tumor xenograft (PDX) model was constructed with a small amount of advanced gastric cancer tissue obtained by real-time endoscopic biopsy, thereby establishing a PDX tissue library. The PDX tissue was taken from the PDX tissue library, revived and inoculated subcutaneously into the mice. […] The tumor tissue was separated, and re-inoculated into new mice. […] C019 represents the mice one month after subcutaneous inoculation of the revived PDX tissue, S019 represents the mice two weeks after the administration of the compound of formula (I) at a single dose of 20 mg/kg, and R019 represents the mice three months after the administration of the compound of formula (I) in a single dose of 40 mg/kg.

[2] = tested on: R019 (HER2 inhibitor-resistant gastric cancer PDX model); assay: Drug resistance test and combination administration in HER2 inhibitor-resistant gastric cancer PDX model (R019); type: in vivo; details: R019 mice, 40 mg/kg intragastrically once a day
[3] = tested on: C019 (HER2 inhibitor-sensitive gastric cancer PDX model); assay: Drug resistance test in HER2 inhibitor-sensitive gastric cancer PDX model (C019); type: in vivo; details: C019 mice, 40 mg/kg intragastrically once a day
Description: as §1
Protocol of the drug resistance test: the inhibitor group was administrated with the compound of formula (I) (intragastrically, once a day, in a single dose of 40 mg/kg), and the control group was administrated with an equal volume of normal saline. The tumor volume was measured every three days. The result of drug sensitivity of C019 and R019 models is shown in FIG. 1 (average value of five mice).

Question: What does the source list for `CCOc1cc2ncc(C#N)c(Nc3ccc(OCc4ccccn4)c(Cl)c3)c2cc1NC(=O)/C=C/[C@H]1CCCN1C` [compound of formula (I)]?
Answer: tumor response after prolonged administration ([1]; 20 mg/kg intragastrically once a day for three months): resistance; tumor response after prolonged administration ([1]; re-inoculated tumor, 40 mg/kg intragastrically once a day for three months): complete resistance; drug sensitivity of the model [2]: high resistance; drug sensitivity of the model [3]: highly sensitive; tumor inhibition rate ([3]; average value of five mice): > 100%

— patent US10857146B2, “Method for preventing or treating tumor diseases with a combination of tyrosine kinase inhibitor and CDK4/6 inhibitor” (Jiangsu Hengrui Medicine Co., Ltd., priority 2018, dated 2020)
